Measured values taken from publication PMC12828148, “Engineered cyclic peptide targeting ITGA5 disrupts tumor–stroma interaction to overcome desmoplasia and resistance in pancreatic ductal adenocarcinoma” (Acta Pharmaceutica Sinica. B, 2025).
Peptide text beside a SMILES is read from it.

How the values were obtained:
[1] = system: PANC-1 + PSC and MIA PaCa-2 + PSC co-injection xenograft tumors
Description: Six-week-old male CB17 SCID mice (Janvier Labs, Le Genest-Saint-Isle, France) were subcutaneously injected with a 2:1 mixture of 4 × 10^6 human PSCs and 2 × 10^6 PANC-1 or MIA PaCa-2 cells. Tumor growth was assessed twice a week. Tumor-bearing mice (±100 mm^3) were treated with phosphate buffered saline (PBS), cyAV3.3, gemcitabine, or combination of gemcitabine and cyAV3.3 intraperitoneally (i.p). Animals were euthanized, tumors and other organs were harvested and embedded in Cryomatrix (Thermo Scientific) before being snap frozen in cold 2-methyl butane (Thermo Scientific) and stored at −80 °C until analyses. […]
Immunohistochemical staining of mouse tumors
Tumors were cut into 7 μm thick sections and mounted on glass slides using Cryotome FSE (Thermo Scientific), dried, and fixed in acetone for 15 min. Tumor sections were rehydrated in PBS for 10 min then incubated with primary antibody diluted in PBS for 1 hour at RT. Antibodies […]
Next, slides were washed 3 times with PBS before incubation with secondary fluorescence-labeled antibody diluted in PBS. After 30 min of incubation, slides were washed with PBS and shielded with a DAPI -containing mounting medium. Images were made using a Hamamatsu NanoZoomer Digital slide scanner 2.0HT (Hamamatsu Photonics, New Jersey, […]

[2] = target: T1, human integrin α5β1 (Homo sapiens, UniProt P05556+P08648); assay: ITGA5 competition study (α5β1 binding to FN-coated plate, ELISA); details: human recombinant α5β1 on FN-coated plate, increasing peptide concentrations
T1 construct: purchased RnD (printed for the alanine-replacement peptide array, not for the ELISA itself)
Description: To examine the affinity of the peptide to the target ITGA5, a 96 well MaxiSorp™ (Thermo Scientific) was coated with 100 μL FN (Advanced Biomatrix) at 1 μg/mL by overnight incubation at 4 °C. Next, the plate was washed with DPBS (Lonza) and blocked with 5% bovine serum albumin (BSA) in DPBS for at least 1 h at RT. In the meantime, mentioned concentrations of the peptides were mixed with 2 μg/mL human integrin α5β1 in DPBS with Mg^2+ and Ca^2+. The mixture was then set to rest for 30 min at RT. After blocking with 5% BSA, the plate was washed with DPBS. The mixture of integrin α5β1 and peptide was transferred to a well plate and incubated for 1 h at RT. Next, the plate was washed three times with PBS with 0.1% Tween 20 (PBS-T) and then mouse anti-human CD49e (RnD Systems) was added. After 1 h of incubation, plate was washed and the secondary peroxidase labeled antibody was added and incubated for 1 h at RT. After washing with PBS-T, the plate was quickly developed with 3,3′,5,5′-tetramethylbenzidine (TMB) (50 μL per well) and incubated for 5 min at RT in the dark. The reaction was stopped with 3 mol/L H2SO4 (50 μL per well) and the absorbance was measured at 450 nm with plate reader (Tecan).

[3] = system: PANC-1 homospheroids / PANC-1 + PSC heterospheroids; assay: Gene expression in 3D PANC-1 homospheroids and PANC-1 + PSC heterospheroids (qPCR); type: cell-based, human; details: treated Days 3 and 6, qPCR Day 7, n = 3
[4] = system: hPSCs; assay: Cell viability, Alamar blue assay; type: cell-based, human
Description: We investigated the inhibitory effect of both cyclic and linear peptides on PSC activation and signaling. To achieve this, PSCs were seeded and treated with TGF-β and peptides for 48 h (protein expression) or 24 h (gene expression). We also tested the effect of the peptide on the cell viability using Alamar blue assay and found no toxicity (Supporting Information Fig. S3A). […] To quantitate that, we performed Western blot analysis and confirmed the observed effect via immunostaining (Fig. 2B and C; Fig. S3B). The details of the antibodies used can be found in Supporting Information Table S2. […] After obtaining these effects, we focused on cyAV3.3 and examined its inhibitory effects on TGF-β1-stimulated PSCs using qPCR and an RT[2] profiler PCR array for ECM and adhesion receptors (Fig. 2D). […] The details of primers for all genes can be found in Supporting Information Table S3. […] In contrast, cyAV3.3 induced the gene expression of ECM-degrading proteins such as MMP10 and ADAMTS-13 (Supporting Information Fig. S4).

[5] = system: TGF-β treated PSCs; assay: Cell adhesion competition study (PSC attachment to FN-coated plate, crystal violet); type: cell-based, human; details: 50 μmol/L peptide, 30 min pre-incubation 37 °C, 1 h attachment, crystal violet absorbance 600 nm, n = 3
Description: To analyze the interaction of PSC and FN, a 96 suspension well plate was coated with 100 μL FN (Advanced Biomatrix, Carlsbad, CA, USA) at 1 μg/mL by overnight incubation at 4 °C. Next, the plate was washed with DPBS (Lonza) and blocked with 5% bovine serum albumin (BSA) in DPBS for at least 1 h at RT. In the meantime, a cell suspension of 200,000 cells/mL of TGF-β treated PSCs in DPBS with 2 mmol/L Ca^2+ and 2 mmol/L Mg^2+ was treated with 50 μmol/L AV3.3 or cyAV3.3 and incubated for 30 min at 37 °C. After washing the plate with DPBS, 100 μL cell suspension was added to each well and then set to rest for 1 h at RT. The plate was then washed with DPBS to remove unattached cells. […] Next, cells were stained with 0.1% (w/v) crystal violet (Sigma) in 25% methanol at RT. After 20 min, cells were washed with water and lysed with 0.5% (w/v) SDS. The degree of cell attachment was measured by the absorbance of the crystal violet at 600 nm using Tecan Infinite M200 plate reader (Tecan, Mannendorf, Switzerland). In other plate, cells were washed with DPBS after fixation and then stained with DAPI. Images were developed using EVOS fluorescence microscope (Thermo Scientific).

`C[C@@H]1NC(=O)[C@H](CCCNC(=N)N)NC(=O)[C@H](Cc2ccc(O)cc2)NC(=O)[C@H](Cc2ccc(O)cc2)NC(=O)[C@H](CCCNC(=N)N)NC(=O)CNC(=O)[C@H](CCCCN)NC(=O)[C@H](Cc2ccc(O)cc2)NC(=O)[C@H]([C@@H](C)O)NC1=O` [cyAV3.3] (cyclo(ATYKGRYYR)) was tested, and the “reduction of tumor size / tumor growth” value ([1]; PANC-1 + PSC and MIA PaCa-2 + PSC co-injection xenografts, i.p. treatment, n = 4 per group per tumor type) was about 30%, the “signs of toxicity (body mass, organ mass)” value ([1]; co-injection xenograft mice, i.p. treatment) was “did not show any obvious signs of toxicity” and the “tumor blood vessel (CD31+) lumen diameter” value ([1]; immunofluorescence, co-injection xenograft tumors) was “larger lumen diameter compared to the control tumors”. For the same compound, the “blocking of FN-α5β1 interaction, cyclic versus linear” value [2] was “blocked the interaction significantly stronger than AV3.3”, the “gene expression levels related to resistance, stemness and ECM in heterospheroids” value ([3]; PANC-1 + PSC heterospheroids) was “significantly reduced” and the “gene expression in homospheroids” value ([3]; PANC-1 homospheroids) was “some genes including ABCG1, KRAS, MMP2, MMP9 were inhibited”. For the same compound, the “effect on cell viability” value [4] was “no toxicity” and the “blocking of the binding of PSC to FN” value [5] was “blocked the binding of PSC to FN significantly higher than AV3.3”.
